Source: patent US11426402B2, “IRE1 activating compounds for use in therapy” (The Scripps Research Institute, priority 2019, dated 2022)

Assays:
APP = test: [35S] metabolic labeling of APP in 7PA2 CHO cells; type: cell-based
Method: FIGS. 5A-5D. […] Cells were treated for 18 hours, media was then replaced and conditioned in the presence of treatments for 24 hours before harvesting for ELISA assay. Error bars represent SEM for n=3 replicates. Statistics calculated from one-tailed Student's t-test. *p<0.05, **p<0.01, ***p<0.001 (FIG. 5A). Quantification of media and lysate immunoblots from 474 treatment (10 μM) of APP. Error bars represent Standard Deviation for n=3 replicates. Statistics calculated from one-tailed Student's t-test. *p<0.05, **p<0.01 ***p<0.001 (FIG. 5B). […] Statistics calculated from one-tailed Student's t-test. *p<0.05, **p<0.01, ***p<0.001 (FIG. 5C). […] Statistics calculated from one-tailed Student's t-test. *p<0.05, **p<0.01, ***p<0.001 (FIG. 5D).
[^35S] metabolic labeling experiments were performed as previously described^8. […] Band intensities were quantified by densitometry in ImageQuant. Fraction secreted was calculated using the equation: fraction secreted=[extracellular [^35S]-APP signal at t/(extracellular [^35S]-APP signal at t=0+intracellular[^35S]-APP signal at t=0)]. Fraction remaining was calculated using the equation: [(extracellular [^35S]-APP signal at t+intracellular [^35S]-APP signal at t)/(extracellular [^35S]-APP signal at t=0+intracellular [^35S]-APP signal at t=0)].

[1] = test system: IRE1-specific target genes; test: RT-PCR of Xbp1s and Erdj4 in adipose tissue after single IP dose; type: in vivo
From the text: (§1) FIGS. 7A-7D. RT-PCR of Xbp1s and the IRE1/XBP1s target gene Erdj4 from adipose tissue post single IP dose of 474 (FIG. 7A). Liver RNAseq profiles of ATF6, IRE1 and PERK target genes expressed as log 2 fold change of chronic 474 treatment compared to vehicle (FIG. 7B). Body weight (FIG. 7C) and food intake (FIG. 70) over 6 weeks of dosing.
Obesity has grown into a major public health crisis over the past few decades, enhancing the risk of numerous complications such as type 2 diabetes (T2D). […] of Xbp1, the key transcription factor downstream of IRE1, causes insulin resistance through increased accumulation of ER stress^33. Conversely, overexpression of active Xbp1s in the livers of ob/ob mice restores insulin signaling and reduces gluconeogenesis through the targeted degradation of a key metabolic regulator, FoxO1^55. IRE1 function is also critical in the maintenance of pancreatic β-cell function and glucose stimulated-insulin secretion^56. Although these genetic studies highlight the therapeutic potential of targeting the IRE1-XBP1s signaling axis for T2D and related metabolic disorders, no highly-selective pharmacological IRE1 activators have been available until the present disclosure's provision for screening and optimization of a lead molecule, 474.

IRE1 target genes = test: Liver RNA sequencing of DIO mice, IRE1 targets; type: in vivo, mouse; conditions: once-daily IP 50 mg/kg, 6 weeks
Method: as §1
(§2) To test the efficacy of pharmacologic IRE1 activation in mitigating T2D, we chronically administered 474 by once-daily IP injections at 50 mg/kg for a period of 6 weeks to Diet-Induced Obese (DIO) mice, a model of T2D.

[2] = test system: Diet-Induced Obese (DIO) mice; test: Glucose tolerance, serum glucose and insulin in DIO mice; type: in vivo, mouse; conditions: 4 weeks of dosing
From the text: (§3) FIGS. 8A-8E. Oral glucose tolerance test in DIO mice treated with either Vehicle or 474 for 3 weeks (n=8) (FIG. 8A). Serum glucose and insulin levels post 4 weeks of dosing with 474 or vehicle (FIG. 8B). Glucose stimulated insulin secretion in islets isolated from 474 or vehicle treated mice. (FIG. 8C). Hepatic triglyceride content (FIG. 8D) and gene expression profiles of gluconeogenic genes (FIG. 8E) at 6 weeks post dosing.
as §2
(§4) This effect can be rationalized, at least in part, by enhanced pancreatic f-cell function in 474-treated […], as shown by our studies in isolated pancreatic islets from vehicle- and 474-treated mice. […] Given the well-documented link between IRE1 and hepatic metabolism in T2D^55, we also examined markers of liver function after 474 treatment. We found reduced liver triglyceride accumulation in 474-treated mice relative to controls (FIG. 80).

pancreatic islets = test: Glucose stimulated insulin secretion in islets isolated from treated mice; type: in vivo, mouse; conditions: relative to vehicle-treated controls
From the text: as §3, §4

Cc1ccc(OCCN(C)C(=O)Cn2cc(NC(=O)CCOc3ccccc3)cn2)cc1 [Compound 474]
APP degradation (APP): increased APP degradation
secretion of soluble APP into the media (APP): reduced the secretion of soluble APP
IRE1-specific target genes in adipose tissue [1]: induction
bioavailability [1]: readily bioavailable
Xbp1 splicing in liver (IRE1 target genes): robust Xbp1splicing
downstream IRE1 targets in liver (IRE1 target genes): selective activation
basal insulin levels [2]: more prominent decrease
fasting glucose [2]: significant reduction
insulin secretion from islets upon stimulation with glucose (pancreatic islets): dramatic increase
